Columns and labels:
[1] = system: Bacillus subtilis ATCC 6633; details: B. subtilis; Gilbert et al., Tetrahedron 2005; cited from earlier work
[2] = system: Bacillus cereus ATCC 10987; details: B. cereus; Gilbert et al., Tetrahedron 2005; cited from earlier work
[3] = system: breast cancer (MCF-7) cells; test: SRB cytotoxicity assay in MCF-7 cells; assay type: cell-based; details: 72 h, FIG. 1
Description: Dump media and wash wells with PBS. Add approx 100 μL 10% TCA to wells using squirt bottle. Incubate at 4° C. for 30 minutes to 1 hour. Dump TCA and wash plate 5 times with water (use beaker for washes). Add 100 ul SRB dye to wells. Incubate at room temperature for 30 minutes. Dump dye and wash plate 4 times with 1% acetic acid (use beaker for washes). Add 200 μL Tris Base to wells. Incubate at room temperature with agitation for at least 1 hour. Use Softmax pro plate reader with SRB560.
MCF-7 cells were plated at a density of 50,000 cells/well (99 μL/well) in a 96-well microtiter plate and allowed to adhere at 37° C. for 4 h. The drug (dissolved in 1 μL of DMSO/medium solution) was added and cells were incubated at 37° C. for 72 h. 100 μL of a 10% solution of trichloroacetic acid was then added and the cells were incubated for 1 h at 4° C. The supernatant was removed and the plate was washed 5 times with water. 100 μL of SRB dye (Promega) was added and the plate was incubated at rt for 30 min. The dye was removed and the plate was washed 4 times with 1% acetic acid solution. 200 μL of Tris Base was added, and the plate was incubated at rt with agitation for 1 h. Absorbance was read at 560 nm.

leukemia (HL-60) cells = test: MTS cytotoxicity assay in HL-60 cells; assay type: cell-based; details: 72 h, FIG. 2
Description: HL-60 cells were plated at a density of 4,000 cells/well (99 μL/well) in a 96-well microtiter plate. The drug (dissolved in 1 μL of DMSO/medium solution) was added and cells were incubated at 37° C. for 72 h. 20 μL of a solution of MTS/PMS (Promega, 5% PMS/MTS) was then added, the cells were incubated for 1 h, after which absorbance was read at 490 nm.

[4] = system: JC murine mammary adenocarcinoma cells growing in Balb/c mice; test: Antitumor effects in murine mammary tumor model; assay type: in vivo; details: 50 mg/kg intraperitoneal on days 7 and 12, FIG. 3
Description: Model: JC murine mammary adenocarcinoma cells growing in Balb/c mice. Treatment is started when tumor are small, typically ˜20 mm3.
(§1) Treatment: Drug was administered by intraperitoneal injection on days 7, and 12 at 50 mg/kg dissolved in 50% DMSO:50% PBS.

[5] = Body weight / toxicity in murine mammary tumor model; assay type: in vivo
Description: Model: JC murine mammary adenocarcinoma cells growing in Balb/c mice.
as §1

Row | SMILES | antimicrobial activity (MIC) [1] [µg/mL] | antimicrobial activity (MIC) [2] [µg/mL] | cytotoxic activity (killing curve) versus puromycin [3] | cytotoxic activity (killing curve) versus puromycin (leukemia (HL-60) cells) | effect on tumor growth [4] | toxicity ([5]; 50 mg/kg intraperitoneal on days 7 and 12) | effect on body weight ([5]; 50 mg/kg intraperitoneal, during the treatment period (or after), FIG. 4)
1 | COc1ccc(C[C@H](N)C(=O)N[C@H]2[C@@H](O)[C@H](n3cnc4c(N(C)C)ncnc43)O[C@@H]2CO)cc1 [puromycin] | 3.13 | 3.13 |  |  |  |  | 
2 | CN(C)c1ncnc2c1ncn2[C@@H]1O[C@H](CO)[C@H](CC(=O)[C@@H](N)Cc2ccccc2)C1O (stereo partly drawn) [GG-48, 9-{3-[1-(3-amino-2-oxo-4-phenyl)butyl]-3-deoxy-D-ribofuranosyl}-6-dimethylaminopurine] |  |  | killing curves overlapping those of puromycin | killing curves overlapping those of puromycin | suppressed tumor growth | no obvious toxicity | no loss of body weight

Source: patent US7897759B2, “Metabolically stable puromycin analogs” (MUSC Foundation for Research Development, priority 2007, dated 2011)
